Experimental data as given in patent US5227487A, “Certain tricyclic and pentacyclic-hetero nitrogen rhodol dyes” (Molecular Probes, Inc., priority 1990, dated 1993).
Several values for one entry are separate records, joined by “and”; a condition that tells them apart may be missing. Identical values can stand only once.

What was measured:
[1] = Fluorescence emission spectra of rhodol dyes (uncorrected); format: physicochemical
Description: Uncorrected fluorescence data was obtained on a Perkin-Elmer Model 650-40 Fluorescence Spectrophotometer equipped with a Perkin-Elmer/Hitachi 057 X-Y recorder using a ten- to twentyfold dilution of the absorbance solutions. Fluorescence of the rhodol dyes was determined for the reactive dyes and for their conjugates with model compounds by dissolving the dye at a concentration above 1×10^-8 M in an appropriate solvent such as water, methanol or chloroform, followed by measurement of the fluorescence in a suitable instrument, such as a fluorescence spectrometer or fluorescence microscope.

[2] = Absorption spectra and extinction coefficients of rhodol dyes; format: physicochemical; settings: aqueous 50 mM phosphate buffer at pH 8.0-9.0
Description: Stock solutions were prepared by accurately weighting and dissolving 5-10 mg samples of the compounds in 50 mM potassium phosphate buffer at pH 8.0. Absorbance solutions were prepared by further diluting the stock solution with 50 mM potassium phosphate buffer at pH 8.0.

[3] = as above; format: physicochemical; settings: in methanol
[4] = Quantum yield relative to fluorescein; format: physicochemical; settings: aqueous 50 mM phosphate buffer at pH 8.0-9.0; uncorrected
Description: (§1) An estimate of the quantum yield of the dyes relative to fluorescein (quantum yield=0.92 in 0.01M sodium hydroxide) was obtained by integrating the emission spectrum of the dye excited at the same wavelength and optical density as the standard. Approximate photostabilities of the rhodol derivatives, relative to fluorescein, were determined by measuring the time dependent decrease in fluorescence intensity, during continuous illumination, of equimolar solutions of the rhodol dyes and fluorescein.

[5] = pKa / pH dependence of absorption and emission; format: physicochemical
Description: | ^c In aqueous 50 mM phosphate buffer

[6] = background; cited from earlier work
[7] = background, cited from earlier work
[8] = cited from earlier work
[9] = background; cited from earlier work; remark: listed apart in the source
[10] = Photobleaching / photostability relative to fluorescein; format: physicochemical; settings: continuous illumination; equimolar solutions; 50 mM potassium phosphate pH 8.0 (FIG. 3)
Description: as §1

[11] = aqueous 50 mM phosphate buffer at pH 8.0-9.0

Compound | Em Max [1, 11] [nm] | Abs Max [2] [nm] | Em Max ([1]; in methanol) [nm] | Abs Max [3] [nm] | ε (extinction coefficient) [2] [M⁻¹ cm⁻¹] | QY (quantum yield) [4] | also measured
O=C1OC2(c3ccc(O)cc3Oc3cc(O)ccc32)c2ccccc21 [Fluorescein] | 514 | 490 | – | – | 75000 | 0.92 | pKa ([5]; aqueous 50 mM phosphate buffer): 6.4; pH sensitivity [6]: pH dependent absorption spectrum; absorption intensity at 514 nm relative to maximum at 492 nm ([7]; 514 nm): less than 10%; absorptivity at peak ([7]; at absorption peak): 75,000 cm^-1 M^-1; absorption maximum [7]: 492 nm and ~490 nm; quantum yield of the standard ([8]; in 0.01M sodium hydroxide): 0.92
CCNc1cc2oc3cc(=O)c(CCC(=O)O)cc-3c(-c3ccccc3C(=O)O)c2cc1C [Compound 17] | 534 | 510 | – | – | 79400 | 0.65 | pKa ([5]; 50 mm phosphate buffer): 5.91
[N-]=[N+]=Nc1ccc(C(=O)NCCCCCNC(=O)CCc2cc3c(cc2O)Oc2c(cc4c5c2CCCN5CCC4)C32OC(=O)c3ccccc32)cc1 (stereo not drawn) [Compound 43] | 572 | 545 | – | – | – | – | –
Carboxytetramethylrhodamine [reference compound] | 574 | 547 | – | – | 77000 | 0.23 | –
CN(C)c1ccc2c(-c3ccccc3C(=O)[O-])c3ccc(N(C)C)cc3[o+]c2c1 [Tetramethylrhodamine] | – | – | – | – | – | – | pH sensitivity [6]: pH insensitive; quantum yield in alcohol ([8]; background, in alcohol): above 0.90; quantum yield in water ([8]; background, in water): approximately 0.23; photostability [9]: relatively photostable
Carboxyfluorescein [reference compound] | 514 | 491 | – | – | 75000 | 0.78 | pKa ([5]; 50 mm phosphate buffer): 6.4
NCCCCCNC(=O)c1ccc(C(=O)O)c(-c2c3cc(Cl)c(=O)cc-3oc3c4c5c(cc23)CCCN5CCC4)c1 [Compound 30] | – | – | 567 | 541 | 57300 | – | –
O=C(CCc1cc2c(-c3ccccc3C(=O)O)c3cc4c5c(c3oc-2cc1=O)CCCN5CCC4)NCCCCCNC(=O)CN1C(=O)C=CC1=O [Compound 45] | 573 | 544 | – | – | – | – | –
O=C(O)c1ccc(C(=O)O)c(-c2c3cc(Cl)c(=O)cc-3oc3cc4c(cc23)CCCN4)c1 [Compound 24, 5-(and-6)-carboxy-2'-chloro-3'-hydroxy-1,2,3,4tetrahydropyridino[5,6-i]-spiro[isobenzofuran-1(3H),9'-[9H]xanthen-3-one] | 546 | 524 | – | – | – | 0.37 | pKa ([5]; 50 mm phosphate buffer): 4.50
NNC(=O)CCc1cc2c(-c3ccccc3C(=O)O)c3cc4c5c(c3oc-2cc1=O)CCCN5CCC4 [Compound 49] | 573 | 542 | – | – | – | – | –
O=C(O)CCc1cc2c(cc1O)Oc1c(cc3c4c1CCCN4CCC3)C21OC(=O)c2ccccc21 (stereo not drawn) [Compound 39, 3'-hydroxy-2,3,6,7-tetrahydro-1H, 5H-quinolizino[1,9-hi]-spiro[isobenzofuran-1(3H),9'-[9H]xanthen-3-one-2'-(3-propionic acid)] | 562 | 541 | – | – | 58200 | 0.41 | pKa ([5]; 50 mm phosphate buffer): 6.63

Further lines, with some results ahead:

Em Max [1, 11] [nm] | Abs Max [2] [nm] | Em Max ([1]; in methanol) [nm] | Abs Max [3] [nm] | ε (extinction coefficient) [2] [M⁻¹ cm⁻¹] | QY (quantum yield) [4] | Compound | also measured
664 | 640 | – | – | – | – | N#Cc1c2cc(CCC(=O)O)c(=O)cc-2oc2c3c4c(cc12)CCCN4CCC3 [Compound 58] | –
603 | 558 | – | – | – | – | CCc1cc2c(C(=O)O)c3cc4c5c(c3oc-2cc1=O)CCCN5CCC4 [Compound 52] | –
571 | 544 | – | – | – | – | C=CC(=O)NCCCCCNC(=O)CCc1cc2c(-c3ccccc3C(=O)O)c3cc4c5c(c3oc-2cc1=O)CCCN5CCC4 [Compound 42] | –
562 | 538 | 555 | 531 | 69500 | 0.44 | O=C(O)CCc1cc2cc3cc4c5c(c3oc-2cc1=O)CCCN5CCC4 [Compound 54] | ε (extinction coefficient) [3]: 81400 M⁻¹ cm⁻¹
562 | 538 | 556 | 532 | 64100 | – | O=C(O)CCCCc1cc2cc3cc4c5c(c3oc-2cc1=O)CCCN5CCC4 [Compound 55] | ε (extinction coefficient) [3]: 88700 M⁻¹ cm⁻¹
572 | 544 | – | – | – | – | O=C(CI)NCCCCCNC(=O)CCc1cc2c(-c3ccccc3C(=O)O)c3cc4c5c(c3oc-2cc1=O)CCCN5CCC4 [Compound 44] | –
572 | 547 | 562 | 531 | – | – | CCCCCCCCCCCCCCCCc1cc2c(-c3cc(C(=O)O)ccc3C(=O)O)c3cc4c5c(c3oc-2cc1=O)CCCN5CCC4 [Compound 34] | ε (extinction coefficient) [3]: 84400 M⁻¹ cm⁻¹
635 | 602 | 633 | 593 | – | – | O=C(O)CCc1cc2c(C(F)(F)F)c3cc4c5c(c3oc-2cc1=O)CCCN5CCC4 [Compound 57] | –
572 | 543 | – | – | – | – | NCCCCCNC(=O)CCc1cc2c(cc1O)Oc1c(cc3c4c1CCCN4CCC3)C21OC(=O)c2ccccc21 (stereo not drawn) [Compound 50] | –
– | – | 578 | 563 | – | – | O=c1cc2oc3c4c5c(cc3c(CCl)c-2cc1Cl)CCCN5CCC4 [Compound 51] | –
– | – | 568 | 540 | – | – | NCCNC(=O)c1ccc(C(=O)O)c(-c2c3cc(Cl)c(=O)cc-3oc3c4c5c(cc23)CCCN5CCC4)c1 [Compound 31] | –
– | – | 556 | 532 | – | – | O=C(O)CCCCCCCCCCCc1cc2cc3cc4c5c(c3oc-2cc1=O)CCCN5CCC4 [Compound 56] | ε (extinction coefficient) [3]: 84400 M⁻¹ cm⁻¹
535 | 510 | – | – | 54800 | 0.81 | 5-(and -6)-carboxy-2',7'-dimethyl-3'-hydroxy-6'-N-ethylamino-spiro[isobenzofuran- 1(3H),9'-[9H]xanthen-3-one [Compound 12] | pKa ([5]; aqueous 50 mM phosphate buffer): 5.82
572 | 547 | – | – | 74500 | 0.31 | O=C(O)c1ccc(C(=O)O)c(-c2c3cc(Cl)c(=O)cc-3oc3c4c5c(cc23)CCCN5CCC4)c1 [Compound 28] | pKa ([5]; 50 mm phosphate buffer): 5.11
517 | 492 | – | – | 59900 | 0.81 | 5(and -6)-carboxy-3'-hydroxy-6'-amino-spiro[isobenzofuran-1(3H,9'-[9H]xanthen-3- one [Compound 1] | pKa ([5]; aqueous 50 mM phosphate buffer): 5.59; pH dependence of absorption and emission ([5]; aqueous solution, between pH 6 and 10, compared with fluorescein (FIG. 4)): less significant pH dependence; photostability / rate of photobleaching relative to fluorescein [10]: superior photostability
